The structures appear in SMILES notation.

Our source for the IC50 values is BindingDB's records for doi:10.7270/Q2N014XN (Srmlsc, 2007).

This assay concerns the target T1, Diphosphomevalonate decarboxylase (Streptococcus pneumoniae serotype 2 (strain D39 / NCTC 7466), UniProt A0A0H2ZN59).
T1 sequence (A0A0H2ZN59 whole entry): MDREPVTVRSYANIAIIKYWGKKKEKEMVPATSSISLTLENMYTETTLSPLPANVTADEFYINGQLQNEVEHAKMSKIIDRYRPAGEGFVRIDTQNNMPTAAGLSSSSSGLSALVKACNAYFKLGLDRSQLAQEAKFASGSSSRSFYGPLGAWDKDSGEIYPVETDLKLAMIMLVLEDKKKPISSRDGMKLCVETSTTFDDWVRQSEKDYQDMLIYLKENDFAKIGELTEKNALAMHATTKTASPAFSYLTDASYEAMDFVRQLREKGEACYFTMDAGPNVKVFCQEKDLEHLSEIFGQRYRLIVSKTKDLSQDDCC
Kind of assay: S. pneumoniae DPM-DC inhibitor potency, dose response, biochemical, PK/LDH-coupled NADH fluorescence, hexokinase coupling counter-screen (AID 550). (In general: A counterscreen serves to expose hits that act by an unwanted route or on another target.)
Broadly, the IC50 is the concentration needed to halve the response being measured. On to `COc1ccc(-c2cc(C(F)(F)F)n3nc(C(=O)N4CCC5(CC4)OCCO5)cc3n2)cc1OC` [8-{[5-(3,4-dimethoxyphenyl)-7-(trifluoromethyl)pyrazolo[1,5-a]pyrimidin-2-yl]carbonyl}-1,4-dioxa-8-azaspiro[4.5]decane], for which half-maximal inhibition (IC50) required 75.3 µM.

`CC1(C)C(C=C(Cl)Cl)C1C(=O)N1CCN(c2ccccc2)CC1` (stereo not given) [1-{[3-(2,2-dichlorovinyl)-2,2-dimethylcyclopropyl]carbonyl}-4-phenylpiperazine]: the IC50 is greater than 10000 µM.

In turn, `Cc1c(C(=O)NC2CC2)oc2ccc(S(=O)(=O)N3CCCCCC3)cc12` [5-(1-azepanylsulfonyl)-N-cyclopropyl-3-methyl-2-benzofurancarboxamide] gave an IC50 greater than 10000 µM.

`COC(=O)c1cc(OC)c(OC)cc1NC(=O)c1oc2ccccc2c1C` [4,5-dimethoxy-2-[(3-methylbenzofuran-2-carbonyl)amino]benzoic acid methyl ester] displayed a 50% inhibitory concentration (IC50) greater than 10000 µM.

`CC(=NCc1ccco1)c1c(C)[nH]n(-c2nc3ccccc3s2)c1=O` [(4Z)-2-(1,3-benzothiazol-2-yl)-4-[1-(furan-2-ylmethylamino)ethylidene]-5-methyl-pyrazol-3-one] came in with an IC50 greater than 10000 µM.

In turn, `Cc1c(NC(=O)C2CCN(S(=O)(=O)c3ccccc3)CC2)c(=O)n(-c2ccccc2)n1C` [1-(benzenesulfonyl)-N-(1,5-dimethyl-3-oxo-2-phenyl-4-pyrazolyl)-4-piperidinecarboxamide] had a half-inhibitory concentration (IC50) greater than 10000 µM.

The compound `COc1ccccc1N1CCN(C(=O)CSc2nnc(NC(=O)c3ccco3)s2)CC1` [Furan-2-carboxylic acid (5-{2-[4-(2-methoxy-phenyl)-piperazin-1-yl]-2-oxo-ethylsulfanyl}-[1,3,4]thiadiazol-2-yl)-amide] showed an IC50 of 262 µM.

The compound `Cc1ccc(OCCn2c(C)c(C=Nn3cnnc3)c3ccccc32)cc1` [1-[2-methyl-1-[2-(4-methylphenoxy)ethyl]-3-indolyl]-N-(1,2,4-triazol-4-yl)methanimine] yielded an IC50 greater than 10000 µM.

`c1ccc2c(c1)nnn2Cc1nnc2sc(-c3ccc4c(c3)OCCO4)nn12` [1-{[6-(2,3-dihydro-1,4-benzodioxin-6-yl)[1,2,4]triazolo[3,4-b][1,3,4]thiadiazol-3-yl]methyl}-1H-1,2,3-benzotriazole]: 83.8 µM corresponded to half-maximal inhibition (IC50).

In turn, `CC1Cc2nc(SCC(=O)Nc3ccc4c(c3)OCO4)n(CCc3ccccc3)c(=O)c2S1` (stereo not given) [MLS000101671] yielded an IC50 greater than 10000 µM.

`Cc1nc2nc(C)c(CCC(=O)N3CCOCC3)c(C)n2n1` [1-(4-morpholinyl)-3-(2,5,7-trimethyl-[1,2,4]triazolo[1,5-a]pyrimidin-6-yl)-1-propanone] showed an IC50 greater than 10000 µM.

With `O=c1[nH]c2cc3c(cc2cc1CN(CCCO)Cc1nnnn1Cc1ccc(F)cc1)OCO3` [7-[[[1-[(4-fluorophenyl)methyl]-1,2,3,4-tetrazol-5-yl]methyl-(3-oxidanylpropyl)amino]methyl]-5H-[1,3]dioxolo[4,5-g]quinolin-6-one], inhibition was half-maximal at 54.1 µM (IC50).

The compound `CCOC(=O)c1cc2c(cn1)[nH]c1ccccc12` came in with an IC50 of 49.4 µM.

`O=S(=O)(Nc1cccc2ncccc12)c1cccs1` [MLS000057468] came in with a 50% inhibitory concentration (IC50) greater than 10000 µM.

`CCc1nnc2sc(-c3ccc(NC(=O)CSc4ccc(Cl)cc4)cc3)nn12` [2-(4-chlorophenyl)sulfanyl-N-[4-(3-ethyl-[1,2,4]triazolo[3,4-b][1,3,4]thiadiazol-6-yl)phenyl]acetamide]: the IC50 stood at 39.6 µM.

`CCOC(=O)c1cc2c(=O)n3cccc(C)c3nc2n(CCc2ccccc2)c1=N` [2-imino-10-methyl-5-oxo-1-(2-phenylethyl)-3-dipyrido[3,4-c:1',2'-f]pyrimidinecarboxylic acid ethyl ester] yielded an IC50 of 27.2 µM.

The compound `CN1CCN(CCNC(=O)c2cc3c(=O)n(C)c4ccccc4c3n2C)CC1` [1,5-dimethyl-N-[2-(4-methyl-1-piperazinyl)ethyl]-4-oxo-2-pyrrolo[3,2-c]quinolinecarboxamide] registered an IC50 of 751 µM.

Consider `CCC(=O)Nc1nnc(Sc2ccc(N(C)C)cc2)s1` [MLS000109846], for which the half-maximal inhibitory concentration (IC50) is greater than 10000 µM.

Regarding `COc1ccc(-c2coc3cc(O)ccc3c2=O)cc1OC` [3-(3,4-dimethoxyphenyl)-7-hydroxy-1-benzopyran-4-one], 19 µM corresponded to half-maximal inhibition (IC50).

As for `CC(=O)NCCn1c(SCc2cc(=O)n3cc(Cl)ccc3n2)nc2ccccc2c1=O` [MLS000095256], the IC50 was 70.6 µM.
